Results taken from PMC11601558, “SLC6A19 inhibition facilitates urinary neutral amino acid excretion and lowers plasma phenylalanine” (JCI Insight, 2024).
Where “and” joins values, the source holds several entries; their conditions need not be identical. Equal entries are not always repeated.

Key:
[1] = tested on: T1, SLC7A5 co-expressed with SLC3A2; assay: SLC7A5 isoleucine transport assay; assay type: cell-based, human; settings: for SLC7A5 transport (Fig S2 curve point): technical replicates
T1 construct: V5; expressed in transfected cells; host or cells: Flp-In T-Rex 293 cells (Thermo Fisher), SLC7A5 tetracycline-induced
Procedure: Supplementary Materials and Methods
Flp-In T-Rex 293 cells (Thermo Fisher) were engineered to induciblyexpress either V5-tagged human SLC1A5, SLC6A8 or SLC7A5 co-expressed with myc-DDK-tagged SLC3A2. Cells expressing SLC 1A5 or SLC6A8 were maintained in either DMEM or DMEM/F12 media supplemented with 10% FBS, 100 U/mL penicillin, 100 μg/mL streptomycin, 200 μg/mL hygromycin, and 10 μg/mL blasticidin. For cells expressing SLC7A5/SLC3A2, the media was additionally supplemented with 300 μg/mL geneticin. All cell lines were maintained at 37°C and 5% CO2. For transport experiments, all cell lines were plated in poly-D-lysine-coated 96-well plates at a density of 35,000 cells/well. One day after plating, expression of SLC1A5, SLC6A8 or SLC7A5 was induced by adding tetracycline at a concentration of 1 μg/mL. Cells were induced for 24 h prior to transport assays. […]
SLC7A5 isoleucine transport assay
Following a 24 h induction with tetracycline, cells were washed with sodium -free LCIS (20 mM HEPES, 140 mM choline chloride, 2.5 mM KCl, 1.8 mM CaCl2, 1 mM MgCl2, pH 7.4) before JNT-517 was added in 8-point concentration-response diluted in sodium-free LCIS. JPH203 (Selleckchem) was used as a positive control (34)at a concentration of 1.3 μM and DMSO was used as a negative control. Cells were incubated for 30 min at room temperature before a mixture of unlabeled L-isoleucine (Millipore Sigma) and 10 μCi/mL 4,5 -3H(N)-labeled L-isoleucine (American Radiolabeled Chemicals) was added at a concentration of 50 μM. After a 2 min incubation at room temperature, cells were washed once with sodium -free LCIS and lysed in scintillation fluid (PerkinElmer). The uptake of radioactive substrate was measured on a Microbeta2 microplate counter (PerkinElmer). […]

healthy volunteers = assay: Phase 1 safety and tolerability, multiple ascending dose (MAD) cohorts; settings: for Any CTCAE Grade ≥ 3 / Any TEAE / Death / SAE / TEAE Anxiety / TEAE Contusion / TEAE Dehydration / TEAE Dizziness / TEAE Drug withdrawal headache / TEAE Dysmenorrhea / TEAE Flushing / TEAE Headache / TEAE Musculoskeletal pain / TEAE Myalgia / TEAE Nausea / TEAE Oropharyngeal pain / TEAE Rash / TEAE Skin injury / TEAE Somnolence / TEAE Swelling of eyelid / TEAE Thirst / TEAE Vascular access site pain / TEAEs leading to IP discontinuation: n = 6
Procedure: Eligible participants included males and females 18 to 55 years of age, medically healthy with no clinically notable medical history, a BMI of 18–40 kg/m^2 and total body weight > 50 kg (110 lbs), and who have been nonsmokers for at least 2 weeks prior to and throughout dosing.
In both SAD and MAD studies, safety and tolerability were assessed by AE monitoring, clinical laboratory tests (blood chemistries, hematology, coagulation, serology, and urinalysis), vital signs, 12-lead electrocardiograms, and physical examinations. Safety assessment and corresponding samples were collected on day-1 prior to dosing and days 1, 2, 3, and 8 for the SAD study or throughout the 14 days of dosing and day 21 for the MAD study.

## NC(=O)N1CCC[C@@H](N(C(=O)NCc2ccc(OC(F)(F)F)cc2F)C2CC2)C1 [JNT-517]
[1]; 0.0160037 uM
  SLC7A5 transport (Fig S2 curve point): 105 and 96.7
[1]; 0.048011 uM
  SLC7A5 transport (Fig S2 curve point): 106 and 104
[1]; 0.144033 uM
  SLC7A5 transport (Fig S2 curve point): 99.2 and 100
[1]; 0.432099 uM
  SLC7A5 transport (Fig S2 curve point): 95.2 and 94.5
[1]; 1.2963 uM
  SLC7A5 transport (Fig S2 curve point): 99.2 and 103
[1]; 3.88889 uM
  SLC7A5 transport (Fig S2 curve point): 101 and 96.2
[1]; 11.6667 uM
  SLC7A5 transport (Fig S2 curve point): 108 and 105
[1]; 35 uM
  SLC7A5 transport (Fig S2 curve point): 133 and 120
[1]; concentrations up to 35 μM
  inhibition of SLC7A5: did not inhibit
Healthy volunteers; MAD 25 mg BID
  Any CTCAE Grade ≥ 3: 0 Number (%)
  Any TEAE: 5 (83.3) Number (%)
  Death: 0 Number (%)
  SAE: 0 Number (%)
  TEAE Anxiety: 0 Number (%)
  TEAE Contusion: 0 Number (%)
  TEAE Dehydration: 0 Number (%)
  TEAE Dizziness: 0 Number (%)
  TEAE Drug withdrawal headache: 1 (16.7) Number (%)
  TEAE Dysmenorrhea: 0 Number (%)
  TEAE Flushing: 0 Number (%)
  TEAE Headache: 3 (50) Number (%)
  TEAE Musculoskeletal pain: 1 (16.7) Number (%)
  TEAE Myalgia: 0 Number (%)
  TEAE Nausea: 0 Number (%)
  TEAE Oropharyngeal pain: 1 (16.7) Number (%)
  TEAE Rash: 0 Number (%)
  TEAE Skin injury: 1 (16.7) Number (%)
  TEAE Somnolence: 1 (16.7) Number (%)
  TEAE Swelling of eyelid: 1 (16.7) Number (%)
  TEAE Thirst: 1 (16.7) Number (%)
  TEAE Vascular access site pain: 0 Number (%)
  TEAEs leading to IP discontinuation: 1 (16.7) Number (%)
Healthy volunteers; MAD 75 mg BID
  Any CTCAE Grade ≥ 3: 0 Number (%)
  Any TEAE: 2 (33.3) Number (%)
  Death: 0 Number (%)
  SAE: 0 Number (%)
  TEAE Anxiety: 1 (16.7) Number (%)
  TEAE Contusion: 0 Number (%)
  TEAE Dehydration: 0 Number (%)
  TEAE Dizziness: 1 (16.7) Number (%)
  TEAE Drug withdrawal headache: 0 Number (%)
  TEAE Dysmenorrhea: 1 (16.7) Number (%)
  TEAE Flushing: 1 (16.7) Number (%)
  TEAE Headache: 1 (16.7) Number (%)
  TEAE Musculoskeletal pain: 0 Number (%)
  TEAE Myalgia: 0 Number (%)
  TEAE Nausea: 1 (16.7) Number (%)
  TEAE Oropharyngeal pain: 0 Number (%)
  TEAE Rash: 1 (16.7) Number (%)
  TEAE Skin injury: 0 Number (%)
  TEAE Somnolence: 0 Number (%)
  TEAE Swelling of eyelid: 0 Number (%)
  TEAE Thirst: 0 Number (%)
  TEAE Vascular access site pain: 1 (16.7) Number (%)
  TEAEs leading to IP discontinuation: 0 Number (%)
Healthy volunteers; MAD 150 mg QD
  Any CTCAE Grade ≥ 3: 0 Number (%)
  Any TEAE: 4 (66.7) Number (%)
  Death: 0 Number (%)
  SAE: 0 Number (%)
  TEAE Anxiety: 0 Number (%)
  TEAE Contusion: 1 (16.7) Number (%)
  TEAE Dehydration: 1 (16.7) Number (%)
  TEAE Dizziness: 0 Number (%)
  TEAE Drug withdrawal headache: 0 Number (%)
  TEAE Dysmenorrhea: 0 Number (%)
  TEAE Flushing: 0 Number (%)
  TEAE Headache: 2 (33.3) Number (%)
  TEAE Musculoskeletal pain: 0 Number (%)
  TEAE Myalgia: 1 (16.7) Number (%)
  TEAE Nausea: 0 Number (%)
  TEAE Oropharyngeal pain: 0 Number (%)
  TEAE Rash: 0 Number (%)
  TEAE Skin injury: 0 Number (%)
  TEAE Somnolence: 0 Number (%)
  TEAE Swelling of eyelid: 0 Number (%)
  TEAE Thirst: 0 Number (%)
  TEAE Vascular access site pain: 0 Number (%)
  TEAEs leading to IP discontinuation: 0 Number (%)
Healthy volunteers; MAD cohorts, all JNT-517 doses (11 of 18)
  incidence of AE: 61.1%
